The values that follow come from patent publication US11191767B2, “Pharmaceutical composition for stimulating stem cell division and suppressing bacterial virulence” (priority 2017, dated 2021).

Where two headings read alike, the source gives them in different places.

Assay [1] has as its system P. aeruginosa IMI-2016. The experiment in a line: MIC of antibiotics by serial dilution with or without FCCD. The class given is cell-based. The method, then: The study is carried out on P. aeruginosa strains given in the previous examples by in vitro serial dilution method using FCCD. Evaluate the decrease in resistance of Pseudomonas aeruginosa strains to amikacin and polymyxin. Prepare two rows of plates with Müller-Hinton nutrient medium: the first row contains various concentrations of the studied antibiotic (amikacin and polymyxin)—31, 62, 125, 250, 500 μg/ml of medium (double dilution). At the same time, prepare the same row of plates, but add FCCD additionally into the medium at a concentration of (0.0001-0.001) %. Inoculate 0.05 ml (drop) of each test strain on the plates from a bacterial suspension containing 10^8 […] according to the optic turbidity standard of 10 units. Müller-Hinton medium without antibiotic and Müller-Hinton medium containing 0.0001% of FCCD without antibiotic are used as controls. Inoculations are incubated at 37° C. for 48 hours. The results are considered by the value of MIC (minimum inhibitory concentration) with the obligatory growth of bacteria on control plates (see table 12).

Assay [2] concerns A. baumannii IMI-2016. Described as above. The class given is cell-based.
The subject of assay [3] is K. pneumoniae IMI-2016. Described as above. The class given is cell-based.
The subject of assay [4] is P. Aeruginosa strains. The experiment in a line: Antibiotic disc diffusion on Müller-Hinton agar with or without FCCD. Type of assay: cell-based, Pseudomonas aeruginosa. Particulars: for sensitivity of bacteria to antibiotic disc (in words): discs added with additional passages, FCCD medium. The method, then: The studies are carried out in vitro by diffusion method on P. Aeruginosa strains indicated in previous experiments. Two rows of plates containing Müller-Hinton agar were prepared in parallel, with a 0.01-0.005% FCCD solution added to the second-row plates. After that, bacteria of the studied strains from a suspension containing 10^8 […] are inoculated on the surface of the agar. To do this, prepare a bacterial suspension corresponding to a concentration of 10^9 […] according to the optic turbidity standard of 10 units diluted with physiological salt solution 10 times (up to 10^8 μl/m1). […] Inoculations on plates with FCCD-free medium are used as controls, as well as media on which discs are not applied. Inoculations are incubated for 48 hours at 37° C. in one passage, then re-inoculation is carried out under similar conditions for the following passages. A total of 4 passages were carried out with controls. The results are taken into account by the diameter of the bacteria inhibition zones. On FCCD-free medium, there are no inhibition zones (an indicator of antibiotic resistance of bacteria), whereas on a medium containing 0.005-0.01% FCCD, a zone of bacterial growth inhibition from 25 to 40 mm in diameter forms around discs (appearance of sensitivity to antibiotic).
Growth inhibition zones were not observed for antibiotics Pseudomonas aeruginosa has genetically determined (initial) antibiotic resistance.

[5] abbreviates: Pseudomonas aeruginosa, IMI2016, Control (without FCCD), read-out: MIC.
Setting [6] is: Pseudomonas aeruginosa, IMI2016, with FCCD 0.001 % (first FCCD line), read-out: MIC.
The mark [7] stands for this setting: Pseudomonas aeruginosa, IMI2016, with FCCD 0.001 % (second FCCD line), read-out: MIC.
[8] abbreviates: Acinetobacter baumannii, IMI2016, Control (without FCCD), read-out: MIC.
Where [9] appears, read: Acinetobacter baumannii, IMI2016, with FCCD 0.001 % (first FCCD line), read-out: MIC.
The mark [10] stands for this setting: Acinetobacter baumannii, IMI2016, with FCCD 0.001 % (second FCCD line), read-out: MIC.
Setting [11] is: Klebsiella pneumoniae, IMI2016, Control (without FCCD), read-out: MIC.
[12] abbreviates: Klebsiella pneumoniae, IMI2016, with FCCD 0,001 % (first FCCD line), read-out: MIC.
Where [13] appears, read: Klebsiella pneumoniae, IMI2016, with FCCD 0,001 % (second FCCD line), read-out: MIC.
[14] abbreviates: with FCCD 0.001 % (first FCCD line).
The mark [15] stands for this setting: with FCCD 0.001 % (second FCCD line).
Where [16] appears, read: with FCCD 0,001 % (first FCCD line).
Where [17] appears, read: with FCCD 0,001 % (second FCCD line).

For the compound `CO/N=C(\C(=O)N[C@@H]1C(=O)N2C(C(=O)O)=C(CSc3nc(=O)c(=O)[nH]n3C)CS[C@H]12)c1csc(N)n1` [Ceftriaxone], the MIC – broadly, the smallest concentration in the dilution series that meets the test's criterion for growth inhibition – was over 500 µg/mL in assay [1] (setting [5]); 250 µg/mL in assay [1] (setting [6]); 500 µg/mL in assay [1] (setting [7]); over 500 µg/mL in assay [2] (setting [8]); 250 µg/mL in assay [2] (setting [9]); 125 µg/mL in assay [2] (setting [10]). For the same compound, the MIC in assay [3] (setting [11]) is over 500 µg/mL; in assay [3] (setting [12]), 125 µg/mL; in assay [3] (setting [13]), 250 µg/mL.

For `C[C@H]1COc2c(N3CCN(C)CC3)c(F)cc3c(=O)c(C(=O)O)cn1c23` [Levofloxacin], the minimum inhibitory concentration (MIC) in assay [1] (setting [5]) is over 500 µg/mL; in assay [1] (setting [6]), 125 µg/mL; in assay [1] (setting [7]) it was 250 µg/mL; in assay [2] (setting [8]), over 500 µg/mL; in assay [2] (setting [9]) it was 125 µg/mL; in assay [2] (setting [10]) it was 62 µg/mL. In addition, the MIC is over 500 µg/mL in assay [3] (setting [11]), 125 µg/mL in assay [3] (setting [12]) and 250 µg/mL in assay [3] (setting [13]).

In the case of `C[C@@H](O)[C@H]1C(=O)N2C(C(=O)O)=C(SCCN=CN)C[C@H]12` [Imipinem], the MIC in assay [1] (Control (without FCCD)) is over 500 µg/mL; in assay [1] (setting [14]), 250 µg/mL; in assay [1] (setting [15]), 125 µg/mL; in assay [2] (Control (without FCCD)) it was over 500 µg/mL; in assay [2] (setting [14]), 250 µg/mL; in assay [2] (setting [15]) it was 31 µg/mL. For the same compound, the minimal inhibitory concentration (MIC) in assay [3] (Control (without FCCD)) is over 500 µg/mL; in assay [3] (setting [16]), 250 µg/mL; in assay [3] (setting [17]) it was 125 µg/mL.

`Cc1nnc(SCC2=C(C(=O)O)N3C(=O)[C@@H](NC(=O)Cn4cnnn4)[C@H]3SC2)s1` [cefazolin]: the “sensitivity of bacteria to antibiotic disc (in words)” value in assay [4] is given as “did not appear sensitive”.

Turning to `NCC[C@H](O)C(=O)N[C@@H]1C[C@H](N)[C@@H](O[C@H]2O[C@H](CN)[C@@H](O)[C@H](O)[C@H]2O)[C@H](O)[C@H]1O[C@H]1O[C@H](CO)[C@@H](O)[C@H](N)[C@H]1O` [Amikacin], the “increase of sensitivity to antibiotic under FCCD” value in assay [1] (Pseudomonas aeruginosa) is reported as 33 times. Besides, the MIC is over 500 µg/mL in assay [1] (setting [5]); 15 µg/mL in assay [1] (setting [6]); 125 µg/mL in assay [1] (setting [7]); over 500 µg/mL in assay [2] (setting [8]); 15 µg/mL in assay [2] (setting [9]); 125 µg/mL in assay [2] (setting [10]). For the same compound, the minimal inhibitory concentration (MIC) was over 500 µg/mL in assay [3] (setting [11]), 31 µg/mL in assay [3] (setting [12]) and 62 µg/mL in assay [3] (setting [13]). The entries for the “zone of bacterial growth inhibition around disc (in words)” value in assay [4] (FCCD-free medium) and in assay [4] (medium with (0.005-0.01)% FCCD) were “no zone of bacterial growth inhibition” and “zone of bacterial growth inhibition appears”, respectively.

In the case of `CC1(C)S[C@@H]2[C@H](NC(=O)[C@H](N)c3ccc(O)cc3)C(=O)N2[C@H]1C(=O)O` [amoxicillin], the “sensitivity of bacteria to antibiotic disc (in words)” value in assay [4] is recorded as “did not appear sensitive”.

Regarding Polymyxin, the minimal inhibitory concentration (MIC) is 250 µg/mL in assay [1] (Control (without FCCD)); 31 µg/mL in assay [1] (setting [14]); 125 µg/mL in assay [1] (setting [15]); over 500 µg/mL in assay [2] (Control (without FCCD)); 31 µg/mL in assay [2] (setting [14]); 62 µg/mL in assay [2] (setting [15]). Moreover, the minimum inhibitory concentration (MIC) in assay [3] (Control (without FCCD)) was over 500 µg/mL; in assay [3] (setting [16]), 62 µg/mL; in assay [3] (setting [17]), 125 µg/mL. Moreover, in assay [1] (Pseudomonas aeruginosa), the “increase of sensitivity to antibiotic under FCCD” value stood at 16 times. Also, the “zone of bacterial growth inhibition around disc (in words)” value in assay [4] (FCCD-free medium) is listed as “no zone of bacterial growth inhibition”; in assay [4] (medium with (0.005-0.01)% FCCD), “zone of bacterial growth inhibition appears”.
